Data published in US4611059A, “Pyridyl-substituted benzothiophenes” (The Upjohn Company, priority 1985, dated 1986).

Molecular target: T1, TXA2 synthetase (Homo sapiens, UniProt P24557)
T1 construct: human platelet microsomes (HPM); from tissue; host or cells: human platelet microsomes
T1 sequence (P24557 1-533): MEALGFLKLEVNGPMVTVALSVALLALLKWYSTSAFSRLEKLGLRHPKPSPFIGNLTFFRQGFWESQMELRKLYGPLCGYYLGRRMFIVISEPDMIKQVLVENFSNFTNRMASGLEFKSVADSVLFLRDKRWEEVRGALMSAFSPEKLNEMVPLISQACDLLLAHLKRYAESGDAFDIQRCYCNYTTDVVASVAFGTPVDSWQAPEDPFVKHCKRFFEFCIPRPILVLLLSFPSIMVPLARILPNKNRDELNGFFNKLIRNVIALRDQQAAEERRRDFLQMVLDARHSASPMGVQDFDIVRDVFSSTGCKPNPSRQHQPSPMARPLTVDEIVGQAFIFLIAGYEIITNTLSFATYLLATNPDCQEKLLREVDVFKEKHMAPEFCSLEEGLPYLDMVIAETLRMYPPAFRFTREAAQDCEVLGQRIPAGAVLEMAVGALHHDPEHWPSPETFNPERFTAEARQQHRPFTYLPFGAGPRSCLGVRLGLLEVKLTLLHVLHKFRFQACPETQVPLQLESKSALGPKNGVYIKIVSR
Experiment: TXA2 inhibition test: TXA2 generated from PGH2 with human platelet microsomes, measured by the response of superfused rabbit aortic strips
Assay type: biochemical
Conditions: test compound added to human platelet microsomes 5 minutes before mixing with PGH2; rabbit aorta response; read-out: approximate ED50 (inhibiting TXA2 formation) (converted)
Experimental: The compounds of the present invention were tested for TXA2 inhibition as follows:
Rabbit aortic strips were superfused in series with Krebs solution. Thromboxane A2 (TXA2) was generated by mixing prostaglandin H2 (PGH2) with human platelet microsomes (HPM).
Potential inhibitors were tested by comparing the response of the rabbit aorta to the amount of TXA2 produced by mixing PGH2 and HPM without the test compound in the reaction medium and then the amount of TXA2 produced when the test compound was added to the HPM 5 minutes before the HPM was mixed with PGH2. […] For a discussion of TXA2 synthetase inhibition testing see, e.g., R. Gorman, supra.

IC50: ~3.71 nM
SMILES: O=C(O)c1cc2cc(Cc3cccnc3)ccc2s1 [Example 7, 5-(3-pyridinylmethyl)benzo[b]thiophene-2-carboxylic acid]
